Results as given in patent US12048680B2, “Use of Gemfibrozil and derivative thereof for treatment and/or prevention of neurodegenerative disease” (Kunming Institute of Zoology Chinese Academy of Sciences, priority 2018, dated 2024).

Columns and labels:
[1] = tested on: insoluble Aβ; assay: ELISA of insoluble Aβ in mouse brain tissue; format: in vivo; conditions: hippocampus and cortex tissues, vs control group (C in FIG. 4)
Experimental: Gemfibrozil was administered to 8-month-old APP/PS1ΔE9 mice (male and female halves). Gemfibrozil was first dissolved in dimethyl sulfoxide (DMSO) at a concentration of 50 mg/mL, and then diluted to a final concentration of 50 μg/mL with mouse drinking water to obtain a drug solution. The mice in the administration group were allowed to freely drink the drug solution containing gemfibrozil, in which the final concentration of DMSO in the solution was 0.1%; and the mice in the control group were allowed to drink water containing 0.1% DMSO freely. All drinking devices contained with Gemfibrozil were wrapped in aluminum foil to prevent decomposition by exposure. During dosing, the drug solution was replaced every 2 days. Mice were measured daily for water consumption. After 2 months of dosing, all mice were subjected to behavioural experiments. Mice were placed in the laboratory to be behaviourally tested one hour prior to the start of daily behavioural studies, and all behavioural experiments were completed between 9 and 17 o'clock. All experiments involving animals were approved by Animal Ethics Committee of the Kunming Institute of Zoology, CAS. 8. Content of insoluble Aβ in mouse brain tissue by ELISA The content of insoluble Aβ in brain tissue was detected by an ELISA kit (Elabscience), and the experiment was performed according to the instructions of the ELISA kit.

[2] = tested on: astrocytes and microglia; assay: Immunofluorescence staining of mouse brain tissue, glia co-localization with Aβ plaques; format: in vivo; conditions: brain tissue of APP/PS1ΔE9 mice
[3] = tested on: APP/PS1ΔE9 mice; assay: Water maze test of spatial learning and memory; format: in vivo, mouse
Experimental: Gemfibrozil was administered to 8-month-old APP/PS1ΔE9 mice (male and female halves). Gemfibrozil was first dissolved in dimethyl sulfoxide (DMSO) at a concentration of 50 mg/mL, and then diluted to a final concentration of 50 μg/mL with mouse drinking water to obtain a drug solution. The mice in the administration group were allowed to freely drink the drug solution containing gemfibrozil, in which the final concentration of DMSO in the solution was 0.1%; and the mice in the control group were allowed to drink water containing 0.1% DMSO freely. All drinking devices contained with Gemfibrozil were wrapped in aluminum foil to prevent decomposition by exposure. During dosing, the drug solution was replaced every 2 days. Mice were measured daily for water consumption. After 2 months of dosing, all mice were subjected to behavioural experiments. Mice were placed in the laboratory to be behaviourally tested one hour prior to the start of daily behavioural studies, and all behavioural experiments were completed between 9 and 17 o'clock. All experiments involving animals were approved by Animal Ethics Committee of the Kunming Institute of Zoology, CAS. According to the application, a water maze experiment was adopted to evaluate the learning and memory capacity of AD mice after Gemfibrozil was administered for 2 months. The parameters of the used water maze were as follows: a circular pool having a diameter of 120 cm, a height of 50 cm, and a water depth of about 30 cm; and a cylindrical plastic lifesaving platform having a diameter of 10 cm, a height of 29 cm, and submerged 1 cm below the water surface. The water temperature was kept at 20+1° C. During the test, in order to prevent the mice from seeing the platform, white plastic foam was added to the water to spread on the water surface evenly until the lifesaving platform could not be seen, and the water was replaced every two days. The circular pool was divided into four quadrants, and the lifesaving platform was placed in the center of the third quadrant. A camera was arranged right above the water maze and used for recording the movement track of the mice. Mice were placed from the rearing room into a room for the water maze experiment for 1 hour before the start of each day of the experiment. The mice were trained for 7 consecutive days. The starting position was randomly changed among the four quadrants, the mice were allowed to explore freely for 1 minute, and the time required for the mice to find a lifesaving platform (also known as latency) was measured. If the mouse was able to find the platform within 1 minute, it was allowed to sit on the platform for 20 seconds, so that it can remember the location of the lifesaving platform based on surrounding markers. […] Each mouse was trained at 90-minute intervals each day and randomly placed in the water maze in three different quadrants each day to look for the lifesaving platform. After 4 hours after the last training on the 7th day, the lifesaving platform of the water maze was removed. The mice were put into water, and the time, the distance and the speed of the mice around the lifesaving platform within 1 minute and the number of shuttles at the position of the lifesaving platform were measured, thereby evaluating the short-term memory capacity of the mice. After 72 hours after the last training on the 7th day, the lifesaving platform of the water maze was removed again. The mice were put into water, and the time, the distance and the speed of the mice around the lifesaving platform within 1 minute and the number of shuttles at the position of the lifesaving platform were measured, thereby evaluating the long-term memory capacity of the mice. During the experiment, the surrounding environment of the water maze should be kept consistent to avoid the influence of environmental factors. The behavior of the mice was followed and videotaped throughout the experiment using SMART 3.0 software (Panlab HARVARD, MA, USA). […]

[4] = tested on: Aβ plaques; assay: Immunohistochemical staining of Aβ plaques with Aβ (4G8) antibodies; format: in vivo; conditions: brain tissue of APP/PS1ΔE9 mouse, vs control group (A-C in FIG. 5)
[5] = tested on: PSD-95 protein; assay: Immunohistochemical staining of mouse brain tissue for PSD-95; format: in vivo; conditions: hippocampus of APP/PS1ΔE9 mice treated for 2 months (A-B in FIG. 3)

Cc1ccc(C)c(OCCCC(C)(C)C(=O)O)c1 [Gemfibrozil, 2,2-dimethyl-5-(2,5-dimethylphenoxy) pentanoic acid]
amount of insoluble Aβ40 [1]: significantly reduced | amount of insoluble Aβ42 [1]: significantly reduced | ratio of insoluble Aβ42 and Aβ40 [1]: did not change significantly | degree of co-localization of the marker Iba1 for microglia with Aβ plaques ([2]; vs control APP/PS1ΔE9 mice (A-B in FIG. 6)): significantly increased | degree of co-localization of GFAP for astrocytes with Aβ plaques ([2]; vs control APP/PS1ΔE9 mice (C-D in FIG. 6)): significantly increased | learning ability ([3]; 8-month-old APP/PS1ΔE9 mice, 50 μg/mL in drinking water for 2 months, 7 days of training, vs control group): significantly improved | short-term memory capacity ([3]; 4 hours after the last training, platform removed, vs control group): significantly improved | long-term memory capacity ([3]; 72 hours after the last training, platform removed): significantly improved | escape time (latency) required to reach the lifesaving platform ([3]; APP/PS1ΔE9 mice, 50 μg/mL in drinking water for 2 months, training phase, vs control group (A in FIG. 1)): less than the control group | range required to reach the lifesaving platform ([3]; APP/PS1ΔE9 mice, 50 μg/mL in drinking water for 2 months, training phase, vs control group (B in FIG. 1)): less than the control group | lingering time in the target quadrant ([3]; long-term memory, 72 hours after the last training (G in FIG. 1)): increase | distance in the target quadrant ([3]; long-term memory, 72 hours after the last training (H in FIG. 1)): increase | number of shuttles at the position of the lifesaving platform ([3]; long-term memory, 72 hours after the last training (I in FIG. 1)): increases | lingering time in the target quadrant ([3]; short-term memory, 4 hours after the last training (D in FIG. 1)): increase | distance in the target quadrant ([3]; short-term memory, 4 hours after the last training (E in FIG. 1)): increase | number of shuttles at the position of the lifesaving platform ([3]; short-term memory, 4 hours after the last training (F in FIG. 1)): increases | deposition of Aβ plaques labeled with Aβ (4G8) antibodies [4]: significantly reduced | PSD-95 immunoreactivity [5]: significantly up-regulated
